In publication PMC7377239, “Cardiovascular Effects of Polychlorinated Biphenyls and Their Major Metabolites” (Environmental Health Perspectives, 2020):
Like-named read-outs stand apart in the source and are kept apart here.

System: iCell cardiomyocytes (human iPSC-derived cardiomyocytes)
Assay: Intracellular Ca2+ flux / beating parameters in iCell cardiomyocytes (FLIPR tetra), 90 min or 24 h
Type: cell-based
Details: Homo sapiens, Cardiomyocyte, 0.00 µM = 100.00; for activity at 0.1 µM: 0.10 µM
Summary of the method: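 Gelatin-plated iCell cardiomyocytes (5,000/well) were dye-loaded for 2 h at 37 °C, then exposed for 90 min or 24 h to PCBs/metabolites (5× plates at 0.05–500 µM; 0.5% DMSO final) in triplicate. Ca2+ flux was read for 100 s at 8 Hz and 37 °C. Peak height, frequency, spacing CV and decay/rise ratio were vehicle-normalized and fitted with a four-parameter logistic model, with POD set at 1 SD of vehicle.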

[1] = 1.5 h, read-out: cm.amp.avg.90min
[2] = 1.5 h, read-out: cm.amp.cv.90min
[3] = 1.5 h, read-out: cm.decay.rise.90min
[4] = 1.5 h, read-out: cm.spacing.cv.90min
[5] = 24 h, read-out: cm.amp.avg.24hrs
[6] = 24 h, read-out: cm.amp.cv.24hrs
[7] = 24 h, read-out: cm.decay.rise.24hrs
[8] = 24 h, read-out: cm.spacing.cv.24hrs

Work on `COc1ccc(-c2cccc(Cl)c2)cc1Cl` [4-OMe PCB11] yielded an activity at 0.01 µM [1] of 85.7%, an activity at 0.01 µM [2] of 106% and an activity at 0.01 µM (1.5 h, read-out: cm.bpm.90min) of 99.1%. For the same compound, the activity at 0.01 µM [3] was 99.7%, the activity at 0.01 µM [4] was 111% and the activity at 0.1 µM [1] was 97.2%. For the same compound, the activity at 0.1 µM [2] was 98.8%, the activity at 0.1 µM (1.5 h, read-out: cm.bpm.90min) was 105% and the activity at 0.1 µM [3] was 99.7%. For the same compound, the activity at 0.1 µM [4] was 106%, the activity at 1 µM [1] was 106% and the activity at 1 µM [2] was 101%. For the same compound, the activity at 1 µM (1.5 h, read-out: cm.bpm.90min) was 96.5%, the activity at 1 µM [3] was 101% and the activity at 1 µM [4] was 145%. For the same compound, the activity at 10 µM [1] was 94.1%, the activity at 10 µM [2] was 109% and the activity at 10 µM (1.5 h, read-out: cm.bpm.90min) was 127%. The activity at 10 µM [3] was 94%, the activity at 10 µM [4] was 102% and the activity at 100 µM [1] was 0%. It also gave an activity at 100 µM [2] of 0%, an activity at 100 µM (1.5 h, read-out: cm.bpm.90min) of 0% and an activity at 100 µM [3] of 0%. The activity at 100 µM [4] was 0%, the activity at 0.01 µM [5] was 121% and the activity at 0.01 µM [6] was 82.2%. The activity at 0.01 µM (24 h, read-out: cm.bpm.24hrs) was 110%, the activity at 0.01 µM [7] was 94.8% and the activity at 0.01 µM [8] was 108%. It also gave an activity at 0.1 µM [5] of 79.3%, an activity at 0.1 µM [6] of 98.7% and an activity at 0.1 µM (24 h, read-out: cm.bpm.24hrs) of 103%. It also gave an activity at 0.1 µM [7] of 98.9%, an activity at 0.1 µM [8] of 101% and an activity at 1 µM [5] of 107%. It also gave an activity at 1 µM [6] of 95.6%, an activity at 1 µM (24 h, read-out: cm.bpm.24hrs) of 90.7% and an activity at 1 µM [7] of 111%. The activity at 1 µM [8] was 98.4%, the activity at 10 µM [5] was 92.1% and the activity at 10 µM [6] was 119%. The activity at 10 µM (24 h, read-out: cm.bpm.24hrs) was 123%, the activity at 10 µM [7] was 109% and the activity at 10 µM [8] was 118%. It also gave an activity at 100 µM [5] of 0%, an activity at 100 µM [6] of 0% and an activity at 100 µM (24 h, read-out: cm.bpm.24hrs) of 0%. It also gave an activity at 100 µM [7] of 0% and an activity at 100 µM [8] of 0%.
